Test results published in patent US11306064B2, “Benzothia(di)azepine compounds and their use as bile acid modulators” (Albireo AB, priority 2018, dated 2022).

Columns and labels:
Assay type in all cases: cell-based
[1] = target: T1, Human LBAT (Homo sapiens, UniProt Q14973); assay: LBAT (h/m) assay: 3H-taurocholic acid uptake in human LBAT-overexpressing cells; conditions: 0.3 μM 3H-taurocholic acid and 7.5 μM cold taurocholic acid, 20 minutes, read-out: hLBAT IC50
T1 construct: expressed in transfected cells; kept under Geneticin selection
T1 sequence (Q14973 1-349): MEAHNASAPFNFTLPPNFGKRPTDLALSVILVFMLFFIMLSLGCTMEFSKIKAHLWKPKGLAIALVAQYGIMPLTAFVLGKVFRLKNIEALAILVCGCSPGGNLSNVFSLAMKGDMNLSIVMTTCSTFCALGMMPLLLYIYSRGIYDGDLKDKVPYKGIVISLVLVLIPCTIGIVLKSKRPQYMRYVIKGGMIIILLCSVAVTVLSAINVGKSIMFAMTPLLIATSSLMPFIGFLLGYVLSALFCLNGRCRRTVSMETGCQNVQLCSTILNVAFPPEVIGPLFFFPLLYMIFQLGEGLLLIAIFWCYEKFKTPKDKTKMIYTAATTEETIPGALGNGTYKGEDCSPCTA
Procedure: LBAT (h/m) Assay Protocol
20,000 cells (Human or Mouse LBAT-overexpressing cells) were seeded in 96-wells plate (Corning CLS3809) in 100 μL MEM-alpha medium (Gibco 12571-063) supplemented with 10% FBS (Gibco 10438026) containing Geneticin (Gibco 10131-027) (1 mg/mL) and incubated at 37° C. in 5% CO2 for 24 hours. After incubation, media was decanted from the wells and cells were washed two times with 300 μL of basal MEM-alpha medium (FBS-free). After decanting basal MEM-alpha medium each time, plates were tapped against paper towel to ensure maximum removal of residual media. For human LBAT, incubation mix was prepared by adding test inhibitor dilutions (3-fold serial dilution in DMSO (Sigma D2650), 10 points) in MEM-alpha (without FBS) containing 0.3 μM 3H-taurocholic acid (ARC ART-1368) and 7.5 μM cold taurocholic acid (Sigma T4009) (maintaining 0.2% final DMSO concentration). For mouse LBAT, incubation mix was prepared by adding test inhibitor dilutions (3-fold serial dilution in DMSO, 10 points) in MEM-alpha (without FBS) containing 0.3 μM 3H-taurocholic acid and 25 μM cold taurocholic acid maintaining 0.2% final DMSO concentration).
50 μL of incubation mix containing test inhibitors was then added to the wells (in duplicate) and the plates were incubated for 20 minutes in a CO2 incubator at 37° C. After incubation, the reaction was stopped by keeping the plates on ice water mix for 2-3 minutes and then the incubation mix was aspirated completely from the wells. The wells were washed two times with 250 μL of chilled unlabelled 1 mM taurocholic acid dissolved in HEPES (Gibco 15630080)-buffered (10 mM) HBSS (Gibco 14175079) (pH 7.4). The plates were tapped against a paper towel after every wash to ensure maximum removal of blocking buffer.
(§1) 100 μL of MicroScint-20 (PerkinElmer 6013621) was added to the wells and kept overnight at room temperature before reading the plates in TopCount NXT™ Microplate Scintillation and Luminescence Counter from PerkinElmer under 3H Test protocol (set at 120 seconds reading time per well, with normal plate orientation).
(§2) Preparation of Test Compound Dilutions
(§3) All test compounds were provided in powder form at room temperature. 10 mM DMSO stocks of the test compounds were prepared, aliquoted and stored at −20° C. From the 10 mM DMSO stock of the compounds, a 3-fold serial dilution in DMSO was prepared to get a total of 10 dilutions of the test compounds. 0.5 μL of this dilution in DMSO was added to 250 μL of FBS-free basal media containing 3H-taurocholic acid and cold taurocholic acid to prepare the incubation mixture.

[2] = tested on: HepaRG cells; assay: HepaRG-based assay: 3H-taurocholic acid uptake in differentiated HepaRG cells; conditions: Homo sapiens, HepaRG, 0.3 μM 3H-taurocholic acid and 7.5 μM cold taurocholic acid, 30 minutes
Procedure: HepaRG-Based Assay Protocol
A cryopreserved vial of differentiated HepaRG cells (Biopredic International HPR116080) was thawed in HepaRG Thawing/Plating/General Purpose Medium (Biopredic International ADD670C) supplemented with 200 mM Glutamax (Gibco 35050061) following the protocol provided by Biopredic International. 70,000 cells per well were seeded in 96-wells plate (Corning CLS3809) in 100 μL of HepaRG Thawing/Plating/General Purpose Medium supplemented with 200 mM Glutamax and incubated at 37° C. in 5% CO2 for 24 hours. Post incubation, the seeding media was replaced by HepaRG Maintenance/Metabolism Medium (Biopredic International ADD620C) and incubated for 6 days, with fresh HepaRG Maintenance/Metabolism Medium replenishment every 48 hours. After 7 days incubation post seeding, incubation media was decanted from the wells and cells were washed two times with 250 μL of William's E Basal Media (Gibco 12551032). After decanting William's E Basal Media each time, plates were tapped against paper towel to ensure maximum removal of residual media.
Incubation mix was prepared by adding test inhibitor dilutions (3-fold serial dilution in DMSO (Sigma D2650)) in William's E media (basal) containing 0.3 μM 3H-taurocholic acid (ARC ART-1368) and 7.5 μM cold taurocholic acid (Sigma T4009) (maintaining 0.2% final DMSO concentration). 50 μl of incubation mix containing test inhibitors was then added to the wells (in duplicate) and the plates were incubated for 30 minutes in 5% CO2 incubator at 37° C. After incubation, the reaction was stopped by keeping the plates on ice water mix for 2-3 minutes and then the incubation mix was aspirated completely from the wells. The wells were washed two times with 250 μL of chilled unlabelled 1 mM taurocholic acid dissolved in HEPES (Gibco 15630080)-buffered (10 mM) HBSS (Gibco 14175079) (pH 7.4). The plates were tapped against a paper towel after every wash to ensure maximum removal of blocking buffer.
as §1, §2, §3

[3] = target: T2, Human ASBT (Homo sapiens, UniProt Q12908); assay: ASBT (h/m) assay: 3H-taurocholic acid uptake in human ASBT-overexpressing cells; conditions: 0.25 μM 3H-taurocholic acid and 5 μM cold taurocholic acid, 20 minutes, read-out: hASBT IC50
T2 construct: expressed in transfected cells; kept under Puromycin selection
T2 sequence (Q12908 1-348): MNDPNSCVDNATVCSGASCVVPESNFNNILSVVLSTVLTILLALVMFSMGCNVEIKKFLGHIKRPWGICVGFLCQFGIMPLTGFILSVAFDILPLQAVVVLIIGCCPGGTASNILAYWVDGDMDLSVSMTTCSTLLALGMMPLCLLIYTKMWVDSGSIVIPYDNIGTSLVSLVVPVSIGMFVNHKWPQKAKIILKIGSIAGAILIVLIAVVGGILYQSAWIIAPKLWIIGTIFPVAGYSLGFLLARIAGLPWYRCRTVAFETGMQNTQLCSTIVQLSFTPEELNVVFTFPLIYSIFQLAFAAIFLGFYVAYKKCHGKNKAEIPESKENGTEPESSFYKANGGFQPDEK
Procedure: ASBT (h/m) Assay Protocol
10,000 cells (Human or Mouse ASBT-overexpressing cells) were seeded in 96-wells plate (Corning CLS3809) in 200 μL MEM-alpha medium (Gibco 12571-063) supplemented with 10% FBS (Gibco 10438026) containing Puromycin (Gibco A1113803) (10 μg/mL) and incubated at 37° C. in 5% CO2 for 48 hours. After incubation, media was decanted from the wells and cells were washed two times with 300 μL of basal MEM-alpha medium (FBS-free). After decanting basal MEM-alpha medium each time, plates were tapped against paper towel to ensure maximum removal of residual media. Test inhibitor dilutions (highest test concentration being 10 μM, 3-fold serial dilution, 10 points) prepared in DMSO (Sigma D2650) were added in incubation mix (maintaining 0.2% final DMSO concentration) containing 0.25 μM 3H-taurocholic acid (ARC ART-1368) and 5 μM of cold taurocholic acid (Sigma T4009). 50 μL of incubation mix containing test inhibitors was then added to the wells (in duplicate) and the plates were incubated for 20 minutes in a CO2 incubator at 37° C. After incubation, the reaction was stopped by keeping the plates on ice water mix for 2-3 minutes and then the incubation mix was aspirated completely from the wells. The wells were washed two times with 250 μL of chilled unlabelled 1 mM taurocholic acid dissolved in HEPES (Gibco 15630080)-buffered (10 mM) HBSS (Gibco 14175079) (pH 7.4). The plates were tapped against a paper towel after every wash to ensure maximum removal of blocking buffer.
100 μL of MicroScint-20 (PerkinElmer 6013621) was added to the wells and kept overnight at room temperature before reading the plates in TopCount NXT™ Microplate Scintillation and Luminescence Counter from PerkinElmer under 3H Test protocol (set at 120 seconds reading time per well).
as §2, §3

Compound | IC50 [1] [nM] | IC50 [2] [nM] | IC50 [3] [nM]
CCCCC1(CCCC)CN(c2ccc(NCc3ccccc3)cc2)c2cc(SC)c(O/C=C/C(=O)O)cc2S(=O)(=O)C1 [Example 22, (E)-3-((5-(4-(benzylamino)phenyl)-3,3-dibutyl-7-(methylthio)-1,1-dioxido-2,3,4,5-tetrahydro-1,5-benzothiazepin-8-yl)oxy)acrylic Acid] | 343 | 2140 | 
CCC1(CC)CN(c2ccc(NC(=O)C(C)(C)C)cc2)c2cc(SC)c(O/C=C(\F)C(=O)O)cc2S(=O)(=O)C1 [Example 52, (Z)-3-((3,3-diethyl-7-(methylthio)-1,1-dioxido-5-(4-pivalamidophenyl)-2,3,4,5-tetrahydro-1,5-benzothiazepin-8-yl)oxy)-2-fluoroacrylic Acid] | 84 | 191 | 
CCCCC1(CCCC)CN(c2ccc(NC(=O)C3CCCC3)cc2)c2cc(SC)c(O/C=C(\F)C(=O)O)cc2S(=O)(=O)C1 [Example 35, (Z)-3-((3,3-dibutyl-5-(4-(cyclopentanecarboxamido)phenyl)-7-(methylthio)-1,1-dioxido-2,3,4,5-tetrahydro-1,5-benzothiazepin-8-yl)oxy)-2-fluoroacrylic Acid] | 66 | 590 | 
CCCCC1(CC)CN(c2ccc(NC(=O)C3CCCC3)cc2)c2cc(SC)c(O/C=C/C(=O)O)cc2S(=O)(=O)C1 (stereo not drawn) [Example 38, (E)-3-((3-butyl-5-(4-(cyclopentanecarboxamido)phenyl)-3-ethyl-7-(methylthio)-1,1-dioxido-2,3,4,5-tetrahydro-1,5-benzothiazepin-8-yl)oxy)acrylic Acid] | 122 | 454 | 
CCCC[C@]1(CC)CN(c2ccccc2)c2cc(NC)c(O/C=C/C(=O)O)cc2S(=O)(=O)C1 (single isomer, unassigned) [Example 93] | 3160 |  | 52
CCCCC1(CCCC)CN(c2ccccc2)c2cc(SC)c(O/C(C)=C/C(=O)O)cc2S(=O)(=O)N1 [Example 83, (E)-3-((3,3-dibutyl-7-(methylthio)-1,1-dioxido-5-phenyl-2,3,4,5-tetrahydro-1,2,5-benzothiadiazepin-8-yl)oxy)but-2-enoic Acid] | 4920 |  | 18
CCCC[C@@]1(CC)CN(c2ccccc2)c2cc(SC)c(O/C=C/C(=O)O)cc2S(=O)(=O)N1C (single isomer, unassigned) [Example 89] | 290 |  | 2010
CCCCC1(CCCC)CN(c2ccccc2)c2cc(SCC)c(O/C=C/C(=O)O)cc2S(=O)(=O)C1 [Example 67, (E)-3-((3,3-dibutyl-7-(ethylthio)-1,1-dioxido-5-phenyl-2,3,4,5-tetrahydro-1,5-benzothiazepin-8-yl)oxy)acrylic Acid] | 461 |  | 192
CCCC[C@]1(CC)CN(c2ccccc2)c2cc(N(C)C)c(O/C=C(\F)C(=O)O)cc2S(=O)(=O)C1 (single isomer, unassigned) [Example 110] | 33 |  | 138
CCCC[C@]1(CC)CN(c2ccccc2)c2cc(SC)c(O/C=C/C(=O)O)cc2S(=O)(=O)N1 (single isomer, unassigned) [Example 78] | 96 |  | 156
CCCCC1(CCCC)CN(c2ccccc2)c2cc(N(C)C)c(O/C=C(\F)C(=O)O)cc2S(=O)(=O)N1 [Example 97, (Z)-3-((3,3-dibutyl-7-(dimethylamino)-1,1-dioxido-5-phenyl-2,3,4,5-tetrahydro-1,2,5-benzothiadiazepin-8-yl)oxy)-2-fluoroacrylic Acid] | 341 |  | 9
CCCC[C@@]1(CC)CN(c2ccccc2)c2cc(F)c(O/C=C/C(=O)O)cc2S(=O)(=O)C1 (single isomer, unassigned) [Example 103] | 187 |  | 320
CCCCC1(CC)CN(c2ccccc2)c2cc(Br)c(O/C=C/C(=O)O)cc2S(=O)(=O)C1 (racemic) [Example 4, (E)-3-((7-bromo-3-butyl-3-ethyl-1,1-dioxido-5-phenyl-2,3,4,5-tetrahydro-1,5-benzothiazepin-8-yl)oxy)acrylic acid] | 218 |  | 167
CCCCC1(CCCC)CN(c2ccc(O)cc2)c2cc(SC)c(O/C=C/C(=O)O)cc2S(=O)(=O)C1 [Example 20, (E)-3-((3,3-dibutyl-5-(4-hydroxyphenyl)-7-(methylthio)-1,1-dioxido-2,3,4,5-tetrahydro-1,5-benzothiazepin-8-yl)oxy)acrylic Acid] | 1300 |  | 20
CCCC[C@]1(CC)CN(c2ccccc2)c2cc(F)c(O/C=C/C(=O)O)cc2S(=O)(=O)C1 (single isomer, unassigned) [Example 102] | 298 |  | 3330
